How the values were obtained:
Assay in all cases: cells
HGC-27 = type: functional, cell-based, Homo sapiens; details: Homo sapiens, HGC-27;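 also: growth inhibition of human HGC-27 cells, read out in a cell viability assay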
Description: SANGER: Inhibition of human HGC-27 cell growth in a cell viability assay.

HuTu80 = type: functional, cell-based, Homo sapiens, HUTU-80; details: Homo sapiens, HuTu80;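 also: growth inhibition of HuTu80 human cells, determined with a cell viability readout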
Description: SANGER: Inhibition of human HUTU-80 cell growth in a cell viability assay.

ML-2 = type: functional, cell-based; details: Homo sapiens;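 also: growth inhibition of ML-2 cells, measured with a cell viability readout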
Description: SANGER: Inhibition of human ML-2 cell growth in a cell viability assay.

CAKI-1 = type: functional, cell-based, Homo sapiens; details: Homo sapiens, CAKI-1;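 also: growth inhibition of CAKI-1 cells, measured by a cell viability assay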
Description: SANGER: Inhibition of human CAKI-1 cell growth in a cell viability assay.

HOP-62 = type: functional, cell-based, Homo sapiens; details: Homo sapiens, HOP-62;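 also: cell growth inhibition determined with a viability assay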
Description: SANGER: Inhibition of human HOP-62 cell growth in a cell viability assay.

A-427 = type: functional, cell-based, Homo sapiens; details: Homo sapiens, A-427;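 also: growth inhibition of human A-427 cells, read out by a cell viability assay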
Description: SANGER: Inhibition of human A427 cell growth in a cell viability assay.

J82 = type: functional, cell-based; details: Homo sapiens;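 also: growth inhibition of J82 cells, read out with a cell viability assay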
Description: SANGER: Inhibition of human J82 cell growth in a cell viability assay.

HLE = type: functional, cell-based, Homo sapiens; details: Homo sapiens, HLE;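 also: growth inhibition of human HLE cells, read out by a cell viability assay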
Description: SANGER: Inhibition of human HLE cell growth in a cell viability assay.

TGBC24TKB = type: functional, cell-based, Homo sapiens; details: Homo sapiens, TGBC24TKB;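 also: growth inhibition of human TGBC24TKB cells, read out with a cell viability assay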
Description: SANGER: Inhibition of human TGBC24TKB cell growth in a cell viability assay.

NCI-H661 = type: functional, cell-based, Homo sapiens; details: Homo sapiens, NCI-H661;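 also: cell viability assay read-out, IC50 being the concentration that inhibits growth of the cells by half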
Description: SANGER: Inhibition of human NCI-H661 cell growth in a cell viability assay.

HCC1937 = type: functional, cell-based, Homo sapiens; details: Homo sapiens, HCC1937;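 also: growth inhibition measured with a cell viability read-out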
Description: SANGER: Inhibition of human HCC1937 cell growth in a cell viability assay.

LB373-MEL-D = type: functional, cell-based, Homo sapiens; details: Homo sapiens, LB373-MEL-D;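 also: growth inhibition of the cell line, read out in a cell viability assay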
Description: SANGER: Inhibition of human LB373-MEL-D cell growth in a cell viability assay.

NB17 = type: functional, cell-based; details: Homo sapiens;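 also: growth inhibition of NB17 cells, read out with a cell viability assay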
Description: SANGER: Inhibition of human NB17 cell growth in a cell viability assay.

NCI-H1770 = type: functional, cell-based; details: Homo sapiens;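 also: growth inhibition of NCI-H1770 cells determined with a viability readout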
Description: SANGER: Inhibition of human NCI-H1770 cell growth in a cell viability assay.

PSN1 = type: functional, cell-based, Homo sapiens; details: Homo sapiens, PSN1;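 also: suppression of growth of human PSN1 cells, read out by a cell viability assay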
Description: SANGER: Inhibition of human PSN1 cell growth in a cell viability assay.

EW-1 = type: functional, cell-based, Homo sapiens; details: Homo sapiens, EW-1
Description: SANGER: Inhibition of human EW-1 cell growth in a cell viability assay.

NCI-H1993 = type: functional, cell-based, Homo sapiens; details: Homo sapiens, NCI-H1993;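 also: growth inhibition of the cancer cell line, assessed with a cell viability assay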
Description: SANGER: Inhibition of human NCI-H1993 cell growth in a cell viability assay.

PC-14 = type: functional, cell-based, Homo sapiens; details: Homo sapiens, PC-14;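 also: cell viability assay measuring inhibition of PC-14 cell growth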
Description: SANGER: Inhibition of human PC-14 cell growth in a cell viability assay.

NB14 = type: functional, cell-based; details: Homo sapiens;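 also: growth inhibition of NB14 cells measured with a cell viability assay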
Description: SANGER: Inhibition of human NB14 cell growth in a cell viability assay.

MDA-MB-415 = type: functional, cell-based; details: Homo sapiens
P12-Ichikawa = type: functional, cell-based; details: Homo sapiens
COLO-320-HSR = type: functional, cell-based; details: Homo sapiens;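 also: growth inhibition of COLO-320-HSR cells, determined with a cell viability assay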
Description: SANGER: Inhibition of human COLO-320-HSR cell growth in a cell viability assay.

ES1 = type: functional, cell-based, Homo sapiens; details: Homo sapiens, ES1;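 also: growth inhibition of ES1 cells, read out with a cell viability assay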
Description: SANGER: Inhibition of human ES1 cell growth in a cell viability assay.

EFO-27 = type: functional, cell-based, Homo sapiens; details: Homo sapiens, EFO-27;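 also: growth inhibition of EFO-27 cells, read out with a cell viability assay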
Description: SANGER: Inhibition of human EFO-27 cell growth in a cell viability assay.

HCC2218 = type: functional, cell-based; details: Homo sapiens;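 also: cell viability assay read-out, with IC50 given as the concentration that inhibits growth of the cell line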
Description: SANGER: Inhibition of human HCC2218 cell growth in a cell viability assay.

NCI-H1395 = type: functional, cell-based, Homo sapiens; details: Homo sapiens, NCI-H1395;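 also: cell viability assay read-out quantifying reduced proliferation of human NCI-H1395 cells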
Description: SANGER: Inhibition of human NCI-H1395 cell growth in a cell viability assay.

TE-9 = type: functional, cell-based, Homo sapiens; details: Homo sapiens, TE-9;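 also: cell growth inhibition, measured with a cell viability readout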
Description: SANGER: Inhibition of human TE-9 cell growth in a cell viability assay.

DSH1 = type: functional, cell-based, Homo sapiens; details: Homo sapiens, DSH1;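 also: growth inhibition of human DSH1 cells, measured with a cell viability readout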
Description: SANGER: Inhibition of human DSH1 cell growth in a cell viability assay.

Lu-65 = type: functional, cell-based; details: Homo sapiens;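 also: growth inhibition of Lu-65 cancer cells, read out by a cell viability assay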
Description: SANGER: Inhibition of human LU-65 cell growth in a cell viability assay.

KU-19-19 = type: functional, cell-based, Homo sapiens; details: Homo sapiens, KU-19-19
Description: SANGER: Inhibition of human KU-19-19 cell growth in a cell viability assay.

SNU1 = type: functional, cell-based; details: Homo sapiens;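 also: growth inhibition of human NCI-SNU-1 cells, measured with a cell viability assay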
Description: SANGER: Inhibition of human NCI-SNU-1 cell growth in a cell viability assay.

NEC8 = type: functional, cell-based, Homo sapiens; details: Homo sapiens, NEC8;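 also: growth inhibition of human NEC8 cells, read out by a cell viability assay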
Description: SANGER: Inhibition of human NEC8 cell growth in a cell viability assay.

EW-11 = type: functional, cell-based, Homo sapiens; details: Homo sapiens, EW-11;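 also: growth inhibition of human EW-11 cells, measured with a cell viability assay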
Description: SANGER: Inhibition of human EW-11 cell growth in a cell viability assay.

SAS = type: functional, cell-based, Homo sapiens; details: Homo sapiens, SAS;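 also: growth inhibition of SAS cells, read out with a cell viability assay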
Description: SANGER: Inhibition of human SAS cell growth in a cell viability assay.

KY821 = type: functional, cell-based; details: Homo sapiens;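 also: growth inhibition of human KY821 cells, read out by a cell viability assay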
Description: SANGER: Inhibition of human KY821 cell growth in a cell viability assay.

EOL1 = type: functional, cell-based; details: Homo sapiens;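 also: growth inhibition of EoL-1 cells, read out by a cell viability assay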
Description: SANGER: Inhibition of human EoL-1-cell cell growth in a cell viability assay.

SW 962 = type: functional, cell-based, Homo sapiens; details: Homo sapiens, SW 962;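 also: growth inhibition of human SW962 cells, read out by a cell viability assay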
Description: SANGER: Inhibition of human SW962 cell growth in a cell viability assay.

SK-MEL-1 = type: functional, cell-based; details: Homo sapiens;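 also: growth inhibition of human SK-MEL-1 cells, read out by a cell viability assay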
Description: SANGER: Inhibition of human SK-MEL-1 cell growth in a cell viability assay.

PA-1 = type: functional, cell-based, Homo sapiens; details: Homo sapiens, PA-1;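 also: IC50 for suppression of PA-1 cell proliferation, determined with a cell viability read-out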
Description: SANGER: Inhibition of human PA-1 cell growth in a cell viability assay.

LS-1034 = type: functional, cell-based, Homo sapiens; details: Homo sapiens, LS-1034
Description: SANGER: Inhibition of human LS-1034 cell growth in a cell viability assay.

CGTH-W-1 = type: functional, cell-based, Homo sapiens; details: Homo sapiens, CGTH-W-1;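 also: growth inhibition of human CGTH-W-1 cells measured by cell viability assay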
Description: SANGER: Inhibition of human CGTH-W-1 cell growth in a cell viability assay.

OVCAR-8 = type: functional, cell-based, Homo sapiens; details: Homo sapiens, OVCAR-8;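 also: growth inhibition of human OVCAR-8 cells, read out by a cell viability assay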
Description: SANGER: Inhibition of human OVCAR-8 cell growth in a cell viability assay.

786-0 = type: functional, cell-based, Homo sapiens; details: Homo sapiens
Description: SANGER: Inhibition of human 786-0 cell growth in a cell viability assay.

SW1463 = type: functional, cell-based, Homo sapiens; details: Homo sapiens, SW1463;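 also: growth inhibition of SW1463 cells, determined with a cell viability assay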
Description: SANGER: Inhibition of human SW1463 cell growth in a cell viability assay.

LK-2 = type: functional, cell-based, Homo sapiens; details: Homo sapiens, LK-2;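 also: growth inhibition of LK-2 cells, read out with a viability assay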
Description: SANGER: Inhibition of human LK-2 cell growth in a cell viability assay.

5637 = type: functional, cell-based, Homo sapiens; details: Homo sapiens
Description: SANGER: Inhibition of human 5637 cell growth in a cell viability assay.

RMG-I = type: functional, cell-based, Homo sapiens; details: Homo sapiens, RMG-I;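 also: growth inhibition of human RMG-I cells, read out with a cell viability assay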
Description: SANGER: Inhibition of human RMG-I cell growth in a cell viability assay.

MFH-ino = type: functional, cell-based; details: Homo sapiens;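 also: growth inhibition of human MFH-ino cells, read out by a cell viability assay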
Description: SANGER: Inhibition of human MFH-ino cell growth in a cell viability assay.

CHL-1 = type: functional, cell-based, Homo sapiens; details: Homo sapiens, CHL-1;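 also: cell growth inhibition, read out with a cell viability assay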
Description: SANGER: Inhibition of human CHL-1 cell growth in a cell viability assay.

NCI-H446 = type: functional, cell-based; details: Homo sapiens;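 also: growth inhibition of NCI-H446 cells determined by a cell viability assay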
Description: SANGER: Inhibition of human NCI-H446 cell growth in a cell viability assay.

EGI-1 = type: functional, cell-based, Homo sapiens; details: Homo sapiens, EGI-1;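 also: cell viability readout used to gauge growth inhibition of EGI-1 cells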
Description: SANGER: Inhibition of human EGI-1 cell growth in a cell viability assay.

MC-IXC = type: functional, cell-based, Homo sapiens; details: Homo sapiens, MC-IXC;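 also: growth inhibition of MC-IXC cells, read out with a cell viability assay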
Description: SANGER: Inhibition of human MC-IXC cell growth in a cell viability assay.

In the case of `CC(=O)O[C@@H]1[C@@H](OC(C)=O)[C@@H](O)[C@H](Oc2c(-c3ccc(O)cc3)oc3cc(O)cc(O)c3c2=O)O[C@H]1C`, the IC50 (HGC-27) is reported as > 10 µM, the IC50 (HuTu80) is reported as > 10 µM and the IC50 (ML-2) is reported as > 10 µM. For the same compound, the IC50 (CAKI-1) was > 10 µM, the IC50 (HOP-62) was > 10 µM and the IC50 (A-427) was > 10 µM. The IC50 (J82) was > 10 µM, the IC50 (HLE) was > 10 µM and the IC50 (TGBC24TKB) was > 10 µM. For the same compound, the IC50 (NCI-H661) was > 10 µM, the IC50 (HCC1937) was > 10 µM and the IC50 (LB373-MEL-D) was > 10 µM. For the same compound, the IC50 (NB17) was > 10 µM, the IC50 (NCI-H1770) was > 10 µM and the IC50 (PSN1) was > 10 µM. For the same compound, the IC50 (EW-1) was > 10 µM, the IC50 (NCI-H1993) was > 10 µM and the IC50 (PC-14) was > 10 µM. For the same compound, the IC50 (NB14) was > 10 µM, the IC50 (MDA-MB-415) was > 10 µM and the IC50 (P12-Ichikawa) was > 10 µM. For the same compound, the IC50 (COLO-320-HSR) was > 10 µM, the IC50 (ES1) was > 10 µM and the IC50 (EFO-27) was > 10 µM. The IC50 (HCC2218) was 3.84 µM, the IC50 (NCI-H1395) was > 10 µM and the IC50 (TE-9) was > 10 µM. For the same compound, the IC50 (DSH1) was > 10 µM, the IC50 (Lu-65) was > 10 µM and the IC50 (KU-19-19) was > 10 µM. The IC50 (SNU1) was > 10 µM, the IC50 (NEC8) was > 10 µM and the IC50 (EW-11) was > 10 µM. For the same compound, the IC50 (SAS) was > 10 µM, the IC50 (KY821) was > 10 µM and the IC50 (EOL1) was > 10 µM. The IC50 (SW 962) was > 10 µM, the IC50 (SK-MEL-1) was 9.05 µM and the IC50 (PA-1) was > 10 µM. The IC50 (LS-1034) was > 10 µM, the IC50 (CGTH-W-1) was > 10 µM and the IC50 (OVCAR-8) was > 10 µM. The IC50 (786-0) was > 10 µM, the IC50 (SW1463) was > 10 µM and the IC50 (LK-2) was > 10 µM. The IC50 5637 was > 10 µM, the IC50 (RMG-I) was > 10 µM and the IC50 (MFH-ino) was > 10 µM. The IC50 (CHL-1) was > 10 µM, the IC50 (NCI-H446) was > 10 µM and the IC50 (EGI-1) was > 10 µM. The IC50 (MC-IXC) was > 10 µM.

Reference: ChEMBL document CHEMBL1201861, “Genomics of Drug Sensitity in Cancer screening data, Wellcome Trust Sanger Institute”
